# Test results reported in US6476030B1, “Pyrazolo-triazine derivatives as ligands for GABA receptors” (Merck Sharp & Dohme Ltd., priority 1998, dated 2002).
row,SMILES,melting point
1,"CCn1ncnc1COc1nn2c(-c3ccccc3F)nncc2c1-c1ccccc1 [Example 5, 2-(2-Ethyl-2H-[1,2,4]triazol-3-ylmethoxy)-7-(2-fluorophenyl)-3-phenylpyrazolo[1,5-d][1,2,4]triazine]",171 to 173 °C
2,"CCn1ncnc1COc1nn2c(-c3ccccc3F)nncc2c1-c1ccncc1 [Example 46, 2-(2-Ethyl-2H-[1,2,4]triazol-3-ylmethoxy)-7-(2-fluorophenyl)-3-(pyridin-4-yl)pyrazolo[1,5-d][1,2,4]triazine]",214 to 217 °C
3,"Cc1cccc(COc2nn3c(-c4ccccc4F)nncc3c2-c2ccccc2F)n1 [Example 62, 3,7-bis(2-Fluorophenyl)-2-(6-methylpyridin-2-ylmethoxy)pyrazolo[1,5-d][1,2,4]triazine]",197 °C
4,"Cn1ncnc1COc1nn2c(-c3ccccc3F)nncc2c1-c1cc(F)cc(F)c1 [Example 20, 3-(3,5-Difluorophenyl)-7-(2-fluorophenyl)-2-(2-methyl-2H-[1,2,4]triazol-3-ylmethoxy)pyrazolo[1,5-d][1,2,4]triazine]",171 to 173 °C
5,"CCOc1cccnc1COc1nn2c(-c3ccccc3F)nncc2c1-c1ccccc1F [Example 68, 2-(3-Ethoxypyridin-2-ylmethoxy)-3,7-bis(2-fluorophenyl)pyrazolo[1,5-d][1,2,4]triazine]",77 °C
6,"CCn1ncnc1COc1nn2c(-c3ccccc3F)nncc2c1-c1ccco1 [Example 91, 2-(2-Ethyl-2H-[1,2,4]triazol-3-ylmethoxy)-7-(2-fluorophenyl)-3-(furan-2-yl)pyrazolo[1,5-d][1,2,4]triazine]",182 to 183 °C
7,"CCn1ncnc1COc1nn2c(-c3ccccc3F)nncc2c1C(C)(C)CC [Example 40, 3-(1,1-Dimethylpropyl)-2-(2-ethyl-2H-[1,2,4]triazol-3-ylmethoxy)-7-(2-fluorophenyl)pyrazolo[1,5-d][1,2,4]triazine]",89 to 92 °C
8,"Cn1ncnc1COc1nn2c(-c3cccs3)nncc2c1-c1ccccc1 [Example 11, 2-(2-Methyl-2H-[1,2,4]triazol-3-ylmethoxy)-3-phenyl-7-(thien-2-yl) pyrazolo[1,5-d][1,2,4]triazine]",209 °C
9,"Cn1ncnc1COc1nn2c(-c3ccccc3F)nncc2c1-c1cccnc1 [Example 35, 7-(2-Fluorophenyl)-2-(2-methyl-2H-[1,2,4]triazol-3-ylmethoxy)-3-(pyridin-3-yl)pyrazolo[1,5-d][1,2,4]triazine]",181 to 183 °C
10,"Cn1cc(COc2nn3c(-c4ccccc4F)nncc3c2-c2ccccc2F)nn1 [Example 61, 3,7-bis(2-Fluorophenyl)-2-(1-methyl-1H-[1,2,3]triazol-4-ylmethoxy)pyrazolo[1,5-d][1,2,4]triazine]",175 °C
11,"Cn1ncnc1COc1nn2c(-c3ccccc3F)nncc2c1-c1ccco1 [Example 55, 7-(2-Fluorophenyl)-3-(furan-2-yl)-2-(2-methyl-2H-[1,2,4]triazol-3-ylmethoxy)pyrazolo[1,5-d][1,2,4]triazine]",188 to 190 °C
12,"Cn1ncnc1COc1nn2c(-c3ccccc3F)nncc2c1-c1cccc(F)c1 [Example 3, 3-(3-Fluorophenyl)-7-(2-fluorophenyl)-2-(2-methyl-2H-[1,2,4]triazol-3-ylmethoxy)pyrazolo[1,5-d][1,2,4]triazine]",176 °C
13,"Cn1ncnc1COc1nn2c(-c3ccc(F)cc3)nncc2c1-c1ccccc1F [Example 41, 3-(2-Fluorophenyl)-7-(4-fluorophenyl)-2-(2-methyl-2H-[1,2,4]-triazol-3-ylmethoxy)pyrazolo[1,5-d][1,2,4]triazine]",191 °C
14,"Cn1ncnc1COc1nn2c(-c3cccc(F)c3)nncc2c1-c1ccccc1 [Example 7, 7-(3-Fluorophenyl)-2-(2-methyl-2H-[1,2,4]triazol-3-ylmethoxy)-3-phenylpyrazolo[1,5-d][1,2,4]triazine]",198 °C
15,"CCCn1ncnc1COc1nn2c(-c3ccc(F)cc3)nncc2c1C(C)(C)C [Example 39, 3-(1,1-Dimethylethyl)-7-(4-fluorophenyl)-2-(2-propyl-2H-[1,2,4]triazol-3-ylmethoxy)pyrazolo[1,5-d][1,2,4]triazine]",154 °C
16,"CCCn1ncnc1COc1nn2c(-c3ccccc3F)nncc2c1C(C)(C)C [Example 26, 3-(1,1-Dimethylethyl)-7-(2-fluorophenyl)-2-(2-propyl-2H-[1,2,4]triazol-3-ylmethoxy)pyrazolo[1,5-d][1,2,4]triazine]",93 °C

row,SMILES,melting point
1,"Cc1csc(COc2nn3c(-c4ccccc4F)nncc3c2-c2ccccc2F)n1 [Example 71, 3,7-bis(2-Fluorophenyl)-2-(4-methylthiazol-2-ylmethoxy)pyrazolo[1,5-d][1,2,4]triazine]",176 °C
2,"CCn1ncnc1COc1nn2c(-c3cc(F)ccc3F)nncc2c1C(C)(C)CC [Example 33, 7-(2,5-Difluorophenyl)-3-(1,1-dimethylpropyl)-2-(2-ethyl-2H-[1,2,4]triazol-3-ylmethoxy)pyrazolo[1,5-d][1,2,4]triazine]",85 to 86 °C
3,"Cn1ncnc1COc1nn2c(-c3ccccc3F)nncc2c1-c1cccc(-c2cccnc2)c1 [Example 95, 7-(2-Fluorophenyl)-2-(2-methyl-2H-[1,2,4]triazol-3-ylmethoxy)-3-[3-(pyridin-3-yl)phenyl]pyrazolo[1,5-d][1,2,4]triazine]",157 to 163 °C
4,"Fc1ccccc1-c1c(OCc2ncccc2OC2CCC2)nn2c(-c3ccccc3F)nncc12 [Example 65, 2-(3-Cyclobutyloxypyridin-2-ylmethoxy)-3,7-bis(2-fluorophenyl)-pyrazolo[1,5-d][1,2,4]triazine]",66 °C
5,"Cn1ncnc1COc1nn2c(-c3ccc(F)cc3)nncc2c1C(C)(C)C [Example 37, 3-(1,1-Dimethylethyl)-7-(4-fluorophenyl)-2-(2-methyl-2H-[1,2,4]triazol-3-ylmethoxy)pyrazolo[1,5-d][1,2,4]triazine]",197 °C
6,"Cn1ncnc1COc1nn2c(C3CC3)nncc2c1-c1ccccc1F [Example 89, 7-Cyclopropyl-3-(2-fluorophenyl)-2-(2-methyl-2H-[1,2,4]triazol-3-ylmethoxy)pyrazolo[1,5-d][1,2,4]triazine]",97 to 99 °C
7,"CCC(C)(C)c1c(OCc2ncnn2C)nn2c(-c3c(F)ccc(F)c3F)nncc12 [Example 43, 3-(1,1-Dimethylpropyl)-2-(2-methyl-2H-[1,2,4]triazol-3-ylmethoxy)-7-(2,3,6-trifluorophenyl)pyrazolo[1,5-d][1,2,4]triazine]",122 to 125 °C
8,"CC(C)n1ncnc1COc1nn2c(-c3cc(F)ccc3F)nncc2c1C(C)(C)C [Example 30, 7-(2,5-Difluorophenyl)-3-(1,1-dimethylethyl)-2-(2-isopropyl-2H-[1,2,4]triazol-3-ylmethoxy)pyrazolo[1,5-d][1,2,4]triazine]",163 °C
9,"Cn1ncnc1COc1nn2c(-c3ccccc3F)nncc2c1-c1cccs1 [Example 54, 7-(2-Fluorophenyl)-2-(2-methyl-2H-[1,2,4]triazol-3-ylmethoxy)-3-(thien-2-yl)pyrazolo[1,5-d][1,2,4]triazine]",196 to 197 °C
10,"Fc1ccccc1-c1nncc2c(-c3ccccc3)c(OCc3ccccn3)nn12 [Example 8, 7-(2-Fluorophenyl)-3-phenyl-2-(pyridin-2-ylmethoxy)pyrazolo[1,5-d][1,2,4]triazine]",182 to 183 °C
11,"Cn1cnc(COc2nn3c(-c4ccccc4F)nncc3c2-c2ccccc2F)n1 [Example 59, 3,7-bis(2-Fluorophenyl)-2-(1-methyl-1H-[1,2,4]triazol-3-ylmethoxy)pyrazolo[1,5-d][1,2,4]triazine]",184 °C
12,"FCCn1ncnc1COc1nn2c(-c3ccccc3F)nncc2c1-c1ccccc1F [Example 86, 2-[2-(2-Fluoroethyl)-2H-[1,2,4]triazol-3-ylmethoxy]-3,7-bis(2-fluorophenyl)-pyrazolo[1,5-d][1,2,4]triazine]",172 to 173 °C
13,"Fc1ccccc1-c1c(OCc2ccncc2)nn2c(-c3ccccc3F)nncc12 [Example 64, 3,7-bis(2-Fluorophenyl)-2-(pyridin-4-ylmethoxy)pyrazolo[1,5-d][1,2,4]triazine]",143 °C
14,"Cn1ncnc1COc1nn2c(-c3ccc(F)cc3F)nncc2c1-c1ccccc1F [Example 52, 7-(2,4-Difluorophenyl)-3-(2-fluorophenyl)-2-(2-methyl-2H-[1,2,4]triazol-3-ylmethoxy)pyrazolo[1,5-d][1,2,4]triazine]",164 to 166 °C
15,"Cn1ncnc1COc1nn2c(-c3ccoc3)nncc2c1-c1ccccc1F [Example 80, 3-(2-Fluorophenyl)-7-(furan-3-yl)-2-(2-methyl-2H-[1,2,4]triazol-3-ylmethoxy)pyrazolo[1,5-d][1,2,4]triazine]",148 °C
